Laboratory results as given in patent US12252701B2, “Chimeric antigen receptor T cell therapy” (KITE PHARMA, INC., priority 2020, dated 2025).

Key:
JAK1 = JAK1 (Homo sapiens, UniProt P23458); assay: JAK kinase inhibition biochemical assay (Kinase-Glo Plus luminescence), JAK1; details: 10 μM ATP
Experimental: JAK kinase inhibition in vitro biochemical assays were performed using Kinase-Glo Plus luminescence kinase assay kit (Promega). Kinase activity was measured by quantitating the amount of ATP remaining in solution following a kinase reaction. Luminescent signal from the assay was correlated with the amount of ATP present and was inversely correlated with the amount of kinase activity. Compounds were diluted in 10% DMSO and 5 μl of the dilution were added to a 50 μl reaction so that the final concentration of DMSO was 1% in all of the reactions. […] All enzymatic reactions were conducted at 30° C. for 45 minutes. The 50 μl reaction mixture contained 40 mM Tris, pH 7.4, 10 mM MgCl2, 0.1 mg/ml BSA, 1 mM DTT, 10 μM ATP, Kinase substrate and the enzyme. After the enzymatic reaction, 50 μl of Kinase-Glo Plus Luminescence kinase assay solution (Promega) were added to each reaction and incubated in the plate for 15 minutes at room temperature. Luminescence signal was measured using a Bio-Tek Synergy 2 microplate reader. Kinase activity was performed in duplicate at each concentration and data were analyzed using Graphpad Prism. The difference between luminescence intensities in the absence of Kinase (Lut) and in the presence of Kinase (Luc) was defined as 100% activity (Lut−Luc). Using luminescence signal (Lu) in the presence of the compound, % activity was calculated as: % activity={Lut−Lu)/(Lut−Luc)}×100%, where Lu=the luminescence intensity in the presence of compound.

in vitro = details: human
Experimental: 96-well plates were coated with 100 μl of KIP-1 antibody per well at 1 μg/ml in PBS and plates were incubated at 4° C. overnight. CAR-T cells were thawed and were rested in ImmunoCult expansion medium and incubated overnight at 37° C. Cells were then counted and resuspended at 2 million cells/ml and seed at 200,000 cells per well in 100 μl of expansion medium with 10 ng/ml recombinant IL2. For groups treated with KIP-1, 100 μl of expansion medium were added with 2× final drug dilutions. For CD3/CD28 treated groups, 100 μl of expansion media were added with 2× final drug dilutions containing 25 μl/ml of CD3/CD28 T cell activator from StemCell Technologies. Cells were then incubated at 37° C. After 4 days, cells were counted and diluted 1 to 8-fold in expansion media and then transferred to a 24-well plate. Cell counts were repeated at day 7 and transferred to T25 flasks. On day 11, all cells were harvested and counted.

[1] = tested on: phospho-STAT panel (pSTAT3/4/5), CD3+ T cells; assay: phospho-STAT induction by IL-6, MesoScale Discovery phospho-STAT panel; format: cell-based, human; details: for pSTAT3 / pSTAT4 / pSTAT5: CD3+ T cells
Summary of the method: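 CD19 CAR-T cells, PBMC or CD3+ T cells, rested overnight, were stimulated at 700,000 cells/well with 100 ng/ml IL6 plus compound for 20 minutes at 37° C. Cells were lysed in Tris buffer and pSTAT3/4/5 measured by MSD electrochemiluminescence immunoassay.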

[2] = tested on: phospho-STAT-1, -3 and -5 in CD4, CD8 T cells and monocytes (CAR T product, PBMCs); assay: Intracellular phospho-STAT-1, -3, -5 by flow cytometry in immune cell subsets of CAR T product and PBMCs; format: cell-based, human; details: for pSTAT-5 inhibition: GM-CSF stimulated PBMC
Experimental: Further experiments were performed to look at impacts of JAK inhibitors on STAT phosphorylation in various immune cell subsets.

Nalm6 cells = assay: Serial killing assay, T-cell (CD4, CD8) and Nalm6 cell counts by flow cytometry; format: cell-based, human
Experimental: T-cell counts (CD4 and CD8) were assessed by flow cytometry.
Nalm6 cells were assessed by flow cytometry.
T-cell counts (CD4 and CD8) and Nalm6 cells were assessed by flow cytometry.

[3] = tested on: NALM6.GFP.LUC.CD19 target cells; assay: Serial killing assay of CAR-T, percent cytotoxicity by luciferase detection; details: in vitro at clinically relevant dose levels
Experimental: The percent cytotoxicity to NALM6.GFP.LUC.CD19 target cells was measured by luciferase detection at each round.
In one embodiment, a serial killing assay is a combination of cell killing and how long it takes for CAR T cells to get exhausted under repeated stimulation. In one embodiment, a serial killing assay is a surrogate measure for CAR T cell persistence in vivo.

[4] = E:T ratio of 1:1, dose titration

Sequence of JAK1 (P23458 whole entry): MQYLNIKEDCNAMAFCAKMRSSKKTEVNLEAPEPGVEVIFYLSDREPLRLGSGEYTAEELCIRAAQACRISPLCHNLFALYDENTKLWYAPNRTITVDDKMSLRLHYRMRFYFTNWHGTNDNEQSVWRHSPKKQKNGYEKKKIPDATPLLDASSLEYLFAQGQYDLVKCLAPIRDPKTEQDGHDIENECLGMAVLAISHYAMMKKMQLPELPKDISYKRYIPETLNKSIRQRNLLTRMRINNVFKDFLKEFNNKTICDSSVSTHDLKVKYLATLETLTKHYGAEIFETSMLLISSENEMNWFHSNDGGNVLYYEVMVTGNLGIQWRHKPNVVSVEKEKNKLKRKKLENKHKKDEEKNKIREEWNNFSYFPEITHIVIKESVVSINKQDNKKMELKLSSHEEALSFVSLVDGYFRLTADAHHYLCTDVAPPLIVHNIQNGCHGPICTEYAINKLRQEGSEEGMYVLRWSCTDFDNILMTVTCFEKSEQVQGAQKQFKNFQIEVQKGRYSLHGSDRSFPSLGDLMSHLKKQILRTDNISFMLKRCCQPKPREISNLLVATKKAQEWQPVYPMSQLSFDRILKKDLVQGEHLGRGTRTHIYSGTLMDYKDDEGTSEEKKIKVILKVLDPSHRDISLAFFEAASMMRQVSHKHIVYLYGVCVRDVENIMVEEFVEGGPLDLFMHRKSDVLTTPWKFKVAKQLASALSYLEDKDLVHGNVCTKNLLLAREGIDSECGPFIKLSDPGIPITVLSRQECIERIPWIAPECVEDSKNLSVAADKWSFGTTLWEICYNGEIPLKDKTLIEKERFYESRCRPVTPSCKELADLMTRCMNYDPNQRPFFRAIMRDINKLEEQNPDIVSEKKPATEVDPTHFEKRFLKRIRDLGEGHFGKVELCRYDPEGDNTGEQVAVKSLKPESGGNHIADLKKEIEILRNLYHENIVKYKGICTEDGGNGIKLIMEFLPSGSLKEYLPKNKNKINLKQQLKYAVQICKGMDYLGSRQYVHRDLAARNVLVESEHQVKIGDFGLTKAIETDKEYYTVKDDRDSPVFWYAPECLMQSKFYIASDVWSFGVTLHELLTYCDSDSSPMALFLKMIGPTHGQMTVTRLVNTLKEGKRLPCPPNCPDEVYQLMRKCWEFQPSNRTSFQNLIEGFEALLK

## N#CCC1(n2cc(-c3ncnc4[nH]ccc34)cn2)CN(C2CCN(C(=O)c3ccnc(C(F)(F)F)c3F)CC2)C1 [itacitinib]
JAK1
  IC50: 13 nM

## O=C(Nc1nc2cccc(-c3ccc(CN4CCS(=O)(=O)CC4)cc3)n2n1)C1CC1 [filgotinib]
In vitro
  viability at 0 day, 500 nM: 75%
  viability at 0 day, 1000 nM: 75%
  viability at 4 day, 500 nM: 61.1%
  viability at 4 day, 1000 nM: 59.9%
  viability at 8 day, 500 nM: 78.9%
  viability at 8 day, 1000 nM: 85.1%
  viability at 12 day, 500 nM: 91.8%
  viability at 12 day, 1000 nM: 87.7%
[1]; 100 ng/ml IL-6 + drug 10 uM, 20 min, MSD signal (No stim. 689, IL-6 alone 33641)
  pSTAT3: 2169
[1]; 100 ng/ml IL-6 + drug 10 uM, 20 min, MSD signal (No stim. 1964, IL-6 alone 15405)
  pSTAT4: 2121
[1]; 100 ng/ml IL-6 + drug 10 uM, 20 min, MSD signal (No stim. 9210, IL-6 alone 17743)
  pSTAT5: 1610
[1]; IL-6 + drug 0.125 uM, MSD signal (No stim. 689, IL-6 alone 33641)
  pSTAT3: 23255
[1]; IL-6 + drug 0.125 uM, MSD signal (No stim. 1964, IL-6 alone 15405)
  pSTAT4: 9977
[1]; IL-6 + drug 0.125 uM, MSD signal (No stim. 9210, IL-6 alone 17743)
  pSTAT5: 10484
[1]; IL-6 + drug 0.5 uM, MSD signal (No stim. 689, IL-6 alone 33641)
  pSTAT3: 15242
[1]; IL-6 + drug 0.5 uM, MSD signal (No stim. 1964, IL-6 alone 15405)
  pSTAT4: 5570
[1]; IL-6 + drug 0.5 uM, MSD signal (No stim. 9210, IL-6 alone 17743)
  pSTAT5: 5170
[1]; IL-6 + drug 1 uM, MSD signal (No stim. 689, IL-6 alone 33641)
  pSTAT3: 11163
[1]; IL-6 + drug 1 uM, MSD signal (No stim. 1964, IL-6 alone 15405)
  pSTAT4: 4642
[1]; IL-6 + drug 1 uM, MSD signal (No stim. 9210, IL-6 alone 17743)
  pSTAT5: 3679
[1]; IL-6 + drug 5 uM, MSD signal (No stim. 689, IL-6 alone 33641)
  pSTAT3: 2667
[1]; IL-6 + drug 5 uM, MSD signal (No stim. 1964, IL-6 alone 15405)
  pSTAT4: 2172
[1]; IL-6 + drug 5 uM, MSD signal (No stim. 9210, IL-6 alone 17743)
  pSTAT5: 1797
[1]; IL-6 stimulation 100 ng/ml, 20 minutes, 10 μM to 0.125 μM
  effect on phosphorylated-STAT-1, STAT-3 and STAT-5 levels: reduction of phosphorylated-STAT-1, STAT-3 and STAT-5 levels in a dose-responsive manner
[1]; lower dose titration, IL-6 + drug 3.125 nM, MSD signal (No stim. 123, IL-6 alone 5767)
  pSTAT3: 4968
[1]; lower dose titration, IL-6 + drug 3.125 nM, MSD signal (No stim. 281, IL-6 alone 3624)
  pSTAT4: 3059
[1]; lower dose titration, IL-6 + drug 3.125 nM, MSD signal (No stim. 324, IL-6 alone 2352)
  pSTAT5: 2812
[1]; lower dose titration, IL-6 + drug 6.25 nM, MSD signal (No stim. 123, IL-6 alone 5767)
  pSTAT3: 6740
[1]; lower dose titration, IL-6 + drug 6.25 nM, MSD signal (No stim. 281, IL-6 alone 3624)
  pSTAT4: 4324
[1]; lower dose titration, IL-6 + drug 6.25 nM, MSD signal (No stim. 324, IL-6 alone 2352)
  pSTAT5: 2724
[1]; lower dose titration, IL-6 + drug 12.5 nM, MSD signal (No stim. 123, IL-6 alone 5767)
  pSTAT3: 6547
[1]; lower dose titration, IL-6 + drug 12.5 nM, MSD signal (No stim. 281, IL-6 alone 3624)
  pSTAT4: 3479
[1]; lower dose titration, IL-6 + drug 12.5 nM, MSD signal (No stim. 324, IL-6 alone 2352)
  pSTAT5: 2253
[1]; lower dose titration, IL-6 + drug 25 nM, MSD signal (No stim. 123, IL-6 alone 5767)
  pSTAT3: 5737
[1]; lower dose titration, IL-6 + drug 25 nM, MSD signal (No stim. 281, IL-6 alone 3624)
  pSTAT4: 3452
[1]; lower dose titration, IL-6 + drug 25 nM, MSD signal (No stim. 324, IL-6 alone 2352)
  pSTAT5: 2020
[1]; lower dose titration, IL-6 + drug 50 nM, MSD signal (No stim. 123, IL-6 alone 5767)
  pSTAT3: 6248
[1]; lower dose titration, IL-6 + drug 50 nM, MSD signal (No stim. 281, IL-6 alone 3624)
  pSTAT4: 3208
[1]; lower dose titration, IL-6 + drug 50 nM, MSD signal (No stim. 324, IL-6 alone 2352)
  pSTAT5: 1951
[1]; lower dose titration, IL-6 + drug 100 nM, MSD signal (No stim. 123, IL-6 alone 5767)
  pSTAT3: 5441
[1]; lower dose titration, IL-6 + drug 100 nM, MSD signal (No stim. 281, IL-6 alone 3624)
  pSTAT4: 2047
[1]; lower dose titration, IL-6 + drug 100 nM, MSD signal (No stim. 324, IL-6 alone 2352)
  pSTAT5: 1246
[2]; CAR T product
  inhibitory activity of each p-STAT, CD4 versus CD8 T cells: stronger inhibitory activity (magnitudes) of each p-STAT in CD4 T cells compared to CD8 T cells
[2]; CD4 CART cells
  Primary Cell IL-6 pSTAT1 signaling (% inhibition): 45%
  Primary Cell IL-6 pSTAT3 signaling (% inhibition): 50%
  Primary Cell IL-6 pSTAT5 signaling (% inhibition): 59%
[2]; CD8 CART cells
  Primary Cell IL-6 pSTAT1 signaling (% inhibition): 17%
  Primary Cell IL-6 pSTAT3 signaling (% inhibition): 38%
  Primary Cell IL-6 pSTAT5 signaling (% inhibition): 50%
[2]; CD3+ T cells
  pSTAT-5 inhibition: 40%
[2]; CD14+ monocytes
  pSTAT-5 inhibition: 28%
[2]; IL-6 stimulation
  effect on phosphorylated-STAT-1, -STAT-3 and -STAT5 levels: reduction of phosphorylated-STAT-1, -STAT-3 and -STAT5 levels
[2]; Monocytes within bulk PBMCs
  Primary cell GM-CSF-pSTAT5, inhibition: 28%
[2]; PBMC CD4 T cells
  Primary Cell IL-6 pSTAT1 signaling (% inhibition): 67%
  Primary Cell IL-6 pSTAT3 signaling (% inhibition): 52%
  Primary Cell IL-6 pSTAT5 signaling (% inhibition): 83%
[2]; PBMC CD8 T cells
  Primary Cell IL-6 pSTAT1 signaling (% inhibition): 26%
  Primary Cell IL-6 pSTAT3 signaling (% inhibition): 37%
  Primary Cell IL-6 pSTAT5 signaling (% inhibition): 49%
[2]; PBMC Monocytes
  Primary Cell IL-6 pSTAT1 signaling (% inhibition): 50%
  Primary Cell IL-6 pSTAT3 signaling (% inhibition): 74%
  Primary Cell IL-6 pSTAT5 signaling (% inhibition): 34%
[2]; T cells from PBMCs
  inhibitory activity of each p-STAT, CD4 versus CD8 T cells: stronger inhibitory activity (magnitudes) of each p-STAT in CD4 T cells compared to CD8 T cells
[2]; T cells within bulk PBMCs
  Primary cell GM-CSF-pSTAT5, inhibition: 40%
Nalm6 cells; [4]
  persistence of T-cells (CD4 and CD8 counts): Improved persistence
  serial killing assessed by Nalm6 cells (flow cytometry): enhance serial killing in a dose-dependent manner
Nalm6 cells; E:T ratio of 1:3, dose titration
  impact on T-cell counts and Nalm6 cell counts: not impacted
[3]
  effect on CAR T cells in cell killing, serial killing and T cell expansion assays: not accompanied by a detrimental effect on CAR T cells
